Experimental data: ChEMBL document CHEMBL3044672, “N9- and N7-(Chloromethyl Phenymethyl)Chloropurine Derivatives from , '-Dichloroxylenes: Synthesis and Anticancer Activity” (2005)

Assays:
Format in all cases: functional
SK-MEL-2 = test: Cytotoxicity against Homo sapiens (human) SK-MEL-2 cells after 48 hr by sulforhodamine B assay; settings: SK-MEL-2, 48 h
MDA-MB-231 = test: Cytotoxicity against Homo sapiens (human) MDA-MB-231 cells after 48 hr by sulforhodamine B assay; settings: MDA-MB-231, 48 h
HOP-62 = test: Cytotoxicity against Homo sapiens (human) HOP62 cells after 48 hr by sulforhodamine B assay; settings: HOP-62, 48 h; for CC50: read-out: LC50 (the source's name)
SF-539 = test: Cytotoxicity against Homo sapiens (human) SF539 cells after 48 hr by sulforhodamine B assay; settings: SF-539, 48 h
MOLT-4 = test: Cytotoxicity against Homo sapiens (human) MOLT4 cells after 48 hr by sulforhodamine B assay; settings: MOLT-4, 48 h; for CC50: read-out: LC50 (the source's name)
HCT-15 = test: Cytotoxicity against Homo sapiens (human) HCT15 cells after 48 hr by sulforhodamine B assay; settings: HCT-15, 48 h; for CC50: read-out: LC50 (the source's name)
A498 = test: Cytotoxicity against Homo sapiens (human) A498 cells after 48 hr by sulforhodamine B assay; settings: A498, 48 h
SF-295 = test: Cytotoxicity against Homo sapiens (human) SF295 cells after 48 hr by sulforhodamine B assay; settings: SF-295, 48 h; for CC50: read-out: LC50 (the source's name)
EKVX = test: Cytotoxicity against Homo sapiens (human) EKVX cells after 48 hr by sulforhodamine B assay; settings: for CC50: read-out: LC50 (the source's name)
ACHN = test: Cytotoxicity against Homo sapiens (human) ACHN cells after 48 hr by sulforhodamine B assay; settings: for CC50: read-out: LC50 (the source's name)
IGROV-1 = test: Cytotoxicity against Homo sapiens (human) IGROV1 cells after 48 hr by sulforhodamine B assay; settings: IGROV-1, 48 h
UACC-62 = test: Cytotoxicity against Homo sapiens (human) UACC62 cells after 48 hr by sulforhodamine B assay; settings: UACC-62, 48 h
PC-3 = test: Cytotoxicity against Homo sapiens (human) PC3 cells after 48 hr by sulforhodamine B assay; settings: PC-3, 48 h
786-0 = test: Cytotoxicity against Homo sapiens (human) 786-0 cells after 48 hr by sulforhodamine B assay; settings: 786-0, 48 h
CCRF-CEM = test: Cytotoxicity against Homo sapiens (human) CCRF-CEM cells after 48 hr by sulforhodamine B assay; settings: for CC50: read-out: LC50 (the source's name)
SK-MEL-5 = test: Cytotoxicity against Homo sapiens (human) SK-MEL-5 cells after 48 hr by sulforhodamine B assay; settings: SK-MEL-5, 48 h
SW-620 = test: Cytotoxicity against Homo sapiens (human) SW620 cells after 48 hr by sulforhodamine B assay; settings: SW-620, 48 h; for CC50: read-out: LC50 (the source's name)
HCT-116 = test: Cytotoxicity against Homo sapiens (human) HCT116 cells after 48 hr by sulforhodamine B assay; settings: HCT-116, 48 h; for CC50: read-out: LC50 (the source's name)
RPMI-8226 = test: Cytotoxicity against Homo sapiens (human) RPMI8226 cells after 48 hr by sulforhodamine B assay; settings: RPMI-8226, 48 h; for CC50: read-out: LC50 (the source's name)
OVCAR-3 = test: Cytotoxicity against Homo sapiens (human) OVCAR3 cells after 48 hr by sulforhodamine B assay; settings: OVCAR-3, 48 h
UO-31 = test: Cytotoxicity against Homo sapiens (human) UO31 cells after 48 hr by sulforhodamine B assay; settings: UO-31, 48 h
A549 = test: Cytotoxicity against Homo sapiens (human) A549 cells after 48 hr by sulforhodamine B assay; settings: A549, 48 h; for CC50: read-out: LC50 (the source's name)
SF-268 = test: Cytotoxicity against Homo sapiens (human) SF268 cells assessed as cell growth at 10^-4 M after 48 hr by […] assay; settings: SF-268, 48 h, read-out: Activity
DU-145 = test: Cytotoxicity against Homo sapiens (human) DU145 cells after 48 hr by sulforhodamine B assay; settings: DU-145, 48 h
LOX IMVI = test: Cytotoxicity against Homo sapiens (human) LOXIMVI cells after 48 hr by sulforhodamine B assay
HCC 2998 = test: Cytotoxicity against Homo sapiens (human) HCC2998 cells after 48 hr by sulforhodamine B assay; settings: HCC 2998, 48 h; for CC50: read-out: LC50 (the source's name)
OVCAR-4 = test: Cytotoxicity against Homo sapiens (human) OVCAR4 cells after 48 hr by sulforhodamine B assay; settings: OVCAR-4, 48 h
KM12 = test: Cytotoxicity against Homo sapiens (human) KM12 cells after 48 hr by sulforhodamine B assay; settings: KM12, 48 h; for CC50: read-out: LC50 (the source's name)
NCI-H322M = test: Cytotoxicity against Homo sapiens (human) NCI-H322M cells after 48 hr by sulforhodamine B assay; settings: for CC50: read-out: LC50 (the source's name)
T47D = test: Cytotoxicity against Homo sapiens (human) T47D cells after 48 hr by sulforhodamine B assay
SK-OV-3 = test: Cytotoxicity against Homo sapiens (human) SKOV3 cells after 48 hr by sulforhodamine B assay; settings: SK-OV-3, 48 h
RXF 393 = test: Cytotoxicity against Homo sapiens (human) RXF393 cells after 48 hr by sulforhodamine B assay; settings: RXF 393, 48 h

Nc1nc(Cl)c2ncn(Cc3cccc(CCl)c3)c2n1
GI50 (SK-MEL-2): 10.7 µM
LC50 (concentration killing 50% of cells) (SK-MEL-2): > 100 µM
TGI (SK-MEL-2): 66.1 µM
GI50 (MDA-MB-231): 12 µM
LC50 (MDA-MB-231): 69.2 µM
TGI (MDA-MB-231): 28.8 µM
GI50 (HOP-62): 5.75 µM
TGI (HOP-62): 20.4 µM
CC50 (HOP-62): 58.9 µM
GI50 (SF-539): 4.67 µM
LC50 (concentration killing 50% of cells) (SF-539): 69.2 µM
TGI (SF-539): 20.4 µM
GI50 (MOLT-4): 4.78 µM
TGI (MOLT-4): > 100 µM
CC50 (MOLT-4): > 100 µM
GI50 (HCT-15): 2.51 µM
TGI (HCT-15): 6.76 µM
CC50 (HCT-15): 33.1 µM
GI50 (A498): 25.1 µM
LC50 (lethal concentration, 50% cell kill) (A498): > 100 µM
TGI (A498): 51.3 µM
GI50 (SF-295): 3.38 µM
TGI (SF-295): 14.5 µM
CC50 (SF-295): 39.8 µM
GI50 (EKVX): 21.4 µM
TGI (EKVX): 36.3 µM
CC50 (EKVX): 60.2 µM
GI50 (ACHN): 2.88 µM
TGI (ACHN): 8.71 µM
CC50 (ACHN): 29.5 µM
GI50 (IGROV-1): 3.46 µM
LC50 (IGROV-1): 55 µM
TGI (IGROV-1): 12.9 µM
GI50 (UACC-62): 2.09 µM
LC50 (concentration causing 50% net cell kill) (UACC-62): 13.5 µM
TGI (UACC-62): 4.78 µM
GI50 (PC-3): 9.77 µM
LC50 (concentration causing 50% cell kill) (PC-3): 63.1 µM
TGI (PC-3): 25.1 µM
GI50 (786-0): 6.6 µM
LC50 (786-0): 91.2 µM
TGI (786-0): 26.3 µM
GI50 (CCRF-CEM): 3.02 µM
TGI (CCRF-CEM): > 100 µM
CC50 (CCRF-CEM): > 100 µM
GI50 (SK-MEL-5): 11 µM
LC50 (SK-MEL-5): 51.3 µM
TGI (SK-MEL-5): 23.4 µM
GI50 (SW-620): 3.8 µM
TGI (SW-620): 11.2 µM
CC50 (SW-620): 57.5 µM
GI50 (HCT-116): 1.99 µM
TGI (HCT-116): 3.89 µM
CC50 (HCT-116): 75.9 µM
GI50 (RPMI-8226): 2.39 µM
TGI (RPMI-8226): 11.8 µM
CC50 (RPMI-8226): > 100 µM
GI50 (OVCAR-3): 0.72 µM
LC50 (OVCAR-3): 5.49 µM
TGI (OVCAR-3): 2.29 µM
GI50 (UO-31): 13.5 µM
LC50 (concentration causing 50% net cell kill) (UO-31): 77.6 µM
TGI (UO-31): 32.4 µM
GI50 (A549): 12.3 µM
TGI (A549): 27.5 µM
CC50 (A549): 63.1 µM
growth at 100 µM (SF-268): 0%
GI50 (DU-145): 4.26 µM
LC50 (DU-145): 40.7 µM
TGI (DU-145): 16.6 µM
GI50 (LOX IMVI): 3.38 µM
LC50 (LOX IMVI): 81.3 µM
TGI (LOX IMVI): 13.2 µM
GI50 (HCC 2998): 3.02 µM
TGI (HCC 2998): 4.89 µM
CC50 (HCC 2998): 77.6 µM
GI50 (OVCAR-4): 1.95 µM
LC50 (concentration killing 50% of cells) (OVCAR-4): 9.54 µM
TGI (OVCAR-4): 4.26 µM
GI50 (KM12): 3.31 µM
TGI (KM12): 13.2 µM
CC50 (KM12): 37.1 µM
GI50 (NCI-H322M): 10.5 µM
TGI (NCI-H322M): 22.4 µM
CC50 (NCI-H322M): 46.8 µM
GI50 (T47D): 6.02 µM
LC50 (T47D): > 100 µM
TGI (T47D): 37.1 µM
GI50 (SK-OV-3): 24 µM
LC50 (SK-OV-3): > 100 µM
TGI (SK-OV-3): 67.6 µM

ClCc1cccc(Cn2cnc3c(Cl)ncnc32)c1
GI50 (SK-MEL-2): 21.9 µM
LC50 (concentration killing 50% of cells) (SK-MEL-2): > 100 µM
TGI (SK-MEL-2): 51.3 µM
GI50 (MDA-MB-231): 1.99 µM
LC50 (MDA-MB-231): 8.12 µM
TGI (MDA-MB-231): 4.07 µM
GI50 (HOP-62): 2.63 µM
TGI (HOP-62): 5.12 µM
CC50 (HOP-62): 10.2 µM
GI50 (SF-539): 19.9 µM
LC50 (concentration killing 50% of cells) (SF-539): 61.7 µM
TGI (SF-539): 35.5 µM
GI50 (MOLT-4): 15.8 µM
TGI (MOLT-4): 37.1 µM
CC50 (MOLT-4): 89.1 µM
GI50 (HCT-15): 2.18 µM
TGI (HCT-15): 4.67 µM
CC50 (HCT-15): 10 µM
GI50 (A498): 17.4 µM
LC50 (lethal concentration, 50% cell kill) (A498): 58.9 µM
TGI (A498): 31.6 µM
GI50 (SF-295): 3.23 µM
TGI (SF-295): 8.7 µM
CC50 (SF-295): 29.5 µM
GI50 (EKVX): 18.6 µM
TGI (EKVX): 33.9 µM
CC50 (EKVX): 63.1 µM
GI50 (ACHN): 2.08 µM
TGI (ACHN): 4.07 µM
CC50 (ACHN): 8.12 µM
GI50 (IGROV-1): 9.33 µM
LC50 (IGROV-1): > 100 µM
TGI (IGROV-1): 33.9 µM
GI50 (UACC-62): 1.82 µM
LC50 (concentration causing 50% net cell kill) (UACC-62): 6.31 µM
TGI (UACC-62): 3.38 µM
GI50 (PC-3): 4.16 µM
LC50 (concentration causing 50% cell kill) (PC-3): 67.6 µM
TGI (PC-3): 18.2 µM
GI50 (786-0): 6.16 µM
LC50 (786-0): 50.1 µM
TGI (786-0): 19.9 µM
GI50 (CCRF-CEM): 1.9 µM
TGI (CCRF-CEM): 3.89 µM
CC50 (CCRF-CEM): 7.62 µM
GI50 (SK-MEL-5): 2.29 µM
LC50 (SK-MEL-5): 24.6 µM
TGI (SK-MEL-5): 6.31 µM
GI50 (SW-620): 2.13 µM
TGI (SW-620): 4.36 µM
CC50 (SW-620): 8.91 µM
GI50 (HCT-116): 1.47 µM
TGI (HCT-116): 3.09 µM
CC50 (HCT-116): 6.31 µM
GI50 (RPMI-8226): 3.8 µM
TGI (RPMI-8226): 16.2 µM
CC50 (RPMI-8226): 87.1 µM
GI50 (OVCAR-3): 1.62 µM
LC50 (OVCAR-3): 5.75 µM
TGI (OVCAR-3): 3.02 µM
GI50 (UO-31): 1.44 µM
LC50 (concentration causing 50% net cell kill) (UO-31): 89.1 µM
TGI (UO-31): 36.3 µM
GI50 (A549): 19.5 µM
TGI (A549): 39.8 µM
CC50 (A549): 79.4 µM
GI50 (DU-145): 11.2 µM
LC50 (DU-145): 51.3 µM
TGI (DU-145): 24 µM
GI50 (LOX IMVI): 1.95 µM
LC50 (LOX IMVI): 27.5 µM
TGI (LOX IMVI): 5.01 µM
GI50 (HCC 2998): 0.4 µM
TGI (HCC 2998): 1.73 µM
CC50 (HCC 2998): 5.49 µM
GI50 (RXF 393): 2.29 µM
TGI (RXF 393): 24 µM
CC50 (RXF 393; read-out: LC50 (the source's name)): 70.8 µM
GI50 (OVCAR-4): 2.34 µM
LC50 (concentration killing 50% of cells) (OVCAR-4): 26.3 µM
TGI (OVCAR-4): 5.75 µM
GI50 (KM12): 3.46 µM
TGI (KM12): 13.5 µM
CC50 (KM12): 3.98 µM
GI50 (NCI-H322M): 1.9 µM
TGI (NCI-H322M): 3.46 µM
CC50 (NCI-H322M): 6.45 µM
GI50 (T47D): 3.02 µM
LC50 (T47D): > 100 µM
TGI (T47D): 12.3 µM
GI50 (SK-OV-3): 3.31 µM
LC50 (SK-OV-3): 33.1 µM
TGI (SK-OV-3): 10.5 µM
